Source: publication PMC10745882, “Investigation of Drug-Interaction Potential for Arthritis Dietary Supplements: Chondroitin Sulfate, Glucosamine, and Methylsulfonylmethane” (Molecules, 2023)

Legend:
CYP2C9 = test system: CYP2C9; design: method as in PMID 34821124, PMID 29488228; conditions: previous studies; cited from earlier work
[1] = cited from earlier work
CYP2E1 = test system: CYP2E1; design: method as in PMID 20408500; conditions: related report; cited from earlier work
CYP3A4(T) = biological target: T1, CYP3A4(T) (Homo sapiens, UniProt P08684); assay: CYP inhibition assay in human liver microsomes (LC-MS/MS cocktail), testosterone to 6-β-OH-Testosterone; format: in vitro ADME
T1 construct: Pooled human liver microsomes were purchased from BD Gentest; tissue BD Gentest; host or cells: pooled human liver microsomes
T1 sequence (P08684 whole entry): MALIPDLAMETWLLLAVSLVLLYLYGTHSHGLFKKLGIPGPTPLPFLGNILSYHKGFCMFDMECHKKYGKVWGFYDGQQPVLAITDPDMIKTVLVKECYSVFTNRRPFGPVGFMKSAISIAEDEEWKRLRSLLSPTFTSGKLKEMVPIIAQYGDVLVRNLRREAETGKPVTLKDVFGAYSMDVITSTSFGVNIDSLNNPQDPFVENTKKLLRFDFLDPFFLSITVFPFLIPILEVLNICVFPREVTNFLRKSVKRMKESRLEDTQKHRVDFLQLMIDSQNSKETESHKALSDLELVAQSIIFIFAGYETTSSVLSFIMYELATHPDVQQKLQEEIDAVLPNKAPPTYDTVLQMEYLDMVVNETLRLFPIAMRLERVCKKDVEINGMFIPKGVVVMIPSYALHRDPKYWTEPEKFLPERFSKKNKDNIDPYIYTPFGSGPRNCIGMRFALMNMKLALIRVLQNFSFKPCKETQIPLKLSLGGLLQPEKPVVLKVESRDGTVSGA
Description: (§1) For the experimental method, the reference method was used. Briefly, incubation mixtures were composed of 0.5 mg/mL human liver microsomes; varying concentrations of CS in DW (0.1, 0.3, 1, 3, 10, 30, 100, and 200 µM) or MSM in DW (0.1, 0.3, 1, 3, 10, 30, 100, 300, and 1000 µM) or GCS in DMSO (0.1, 0.3, 1, 3, 10, 30, 100, 300, and 1000 µM); a substrate mixture in DMSO (40 µM phenacetin for CYP1A2; 2.5 µM coumarin for CYP2A6; 80 µM bupropion for CYP2B6; 10 µM diclofenac for CYP2C9; 80 µM [±]-mephenytoin for CYP2C19; 5 µM dextromethorphan for CYP2D6; 2.5 µM midazolam and 30 µM testosterone for CYP3A4); and an NADPH generating system (NGS; 0.1 M glucose-6-phosphate, 10 mg/mL β-NADP^+, and 1 U/mL glucose-6-phosphate dehydrogenase) in a total volume of 200 µL potassium phosphate buffer (0.1 M, pH 7.4). The reaction mixture, excluding NGS, underwent pre-incubation at 37 °C for 5 min, followed by further incubation with NGS for 30 min in a water bath. Well-established selective CYP inhibitors were employed as positive controls (40 µM ketoconazole for CYP3A4, 50 µM furafyllin for CYP1A2, 10 µM quinidine for CYP2D6, 125 µM ticlopidine for CYP2C19 and CYP2B6, 10 µM 8-methoxsalen for CYP2A6, and 10 µM sulfaphenazole for CYP2C9). Post incubation, the reaction was halted by adding 50 µL ice-cold 1% formic acid acetonitrile. After centrifugation at 13,200 rpm for 5 min, the supernatant was collected from the sample and subjected to analysis via an LC-MS/MS system. All experiments were performed in triplicate.
(§2) For the experimental method, the reference method was used. The LC-MS/MS system utilized in this study consisted of an Agilent 1260 binary pump HPLC system coupled with the Agilent 6460 Triple Quadrupole mass spectrometer (Agilent Technologies, Santa Clara, CA, USA), featuring an electrospray ionization source. Chromatographic separation was achieved using a Fortis C8 column (2.1 × 100 mm, 5.0 µm; Fortis Technologies Ltd., Neston, UK). The HPLC mobile phases comprised (A) 0.1% formic acid and (B) 0.1% formic acid in 90% acetonitrile. A gradient elution method was employed with an initial solvent B concentration of 15% and a flow rate of 0.25 mL/min. […] The total run time was 11.0 min, and the injection volume was 5 µL. Mass detection was conducted in the positive ion mode using multiple reaction monitoring (MRM). Specific MRM transitions for each analyte are detailed in Table S4.

CYP2D6 [2] = biological target: T2, CYP2D6 (Homo sapiens, UniProt P10635); design: method as in PMID 34821124, PMID 29488228; conditions: previous studies; cited from earlier work
T2 construct: Pooled human liver microsomes were purchased from BD Gentest; tissue BD Gentest; host or cells: pooled human liver microsomes
T2 sequence (P10635 whole entry): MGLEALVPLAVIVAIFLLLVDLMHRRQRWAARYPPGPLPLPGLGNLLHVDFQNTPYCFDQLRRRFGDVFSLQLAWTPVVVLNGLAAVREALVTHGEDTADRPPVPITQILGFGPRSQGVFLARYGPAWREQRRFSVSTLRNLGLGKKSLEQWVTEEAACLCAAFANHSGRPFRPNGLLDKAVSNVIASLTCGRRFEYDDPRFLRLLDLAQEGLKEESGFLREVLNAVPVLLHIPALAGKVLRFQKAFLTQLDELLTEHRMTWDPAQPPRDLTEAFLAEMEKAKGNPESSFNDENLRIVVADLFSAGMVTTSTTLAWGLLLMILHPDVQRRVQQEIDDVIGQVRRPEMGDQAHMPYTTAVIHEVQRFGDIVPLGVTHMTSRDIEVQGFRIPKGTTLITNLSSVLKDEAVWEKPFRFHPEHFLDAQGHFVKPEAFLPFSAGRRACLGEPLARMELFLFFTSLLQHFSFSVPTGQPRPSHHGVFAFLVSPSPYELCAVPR

CYP2D6 [3] = biological target: T2, CYP2D6; assay: CYP inhibition assay in human liver microsomes (LC-MS/MS cocktail), dextromethorphan to dextrorphan; format: in vitro ADME
Description: as §1, §2

CYP2C19 = biological target: T3, CYP2C19 (Homo sapiens, UniProt P33261); assay: CYP inhibition assay in human liver microsomes (LC-MS/MS cocktail), mephenytoin to 4-OH-mephenytoin; format: in vitro ADME
T3 construct: Pooled human liver microsomes were purchased from BD Gentest; tissue BD Gentest; host or cells: pooled human liver microsomes
T3 sequence (P33261 whole entry): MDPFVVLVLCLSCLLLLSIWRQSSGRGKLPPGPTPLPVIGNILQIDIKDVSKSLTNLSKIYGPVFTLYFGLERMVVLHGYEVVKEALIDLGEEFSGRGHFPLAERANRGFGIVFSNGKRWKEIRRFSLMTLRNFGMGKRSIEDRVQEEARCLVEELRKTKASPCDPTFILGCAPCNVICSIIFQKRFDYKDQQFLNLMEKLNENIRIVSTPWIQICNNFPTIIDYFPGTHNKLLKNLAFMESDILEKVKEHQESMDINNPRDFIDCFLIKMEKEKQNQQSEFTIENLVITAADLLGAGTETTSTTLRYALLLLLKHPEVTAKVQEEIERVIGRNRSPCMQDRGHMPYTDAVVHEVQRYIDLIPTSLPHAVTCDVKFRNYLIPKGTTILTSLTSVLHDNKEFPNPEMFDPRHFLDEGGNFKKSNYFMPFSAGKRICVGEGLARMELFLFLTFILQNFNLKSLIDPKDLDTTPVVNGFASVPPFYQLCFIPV
Description: as §1, §2

CYP2A6 = biological target: T4, CYP2A6 (Homo sapiens, UniProt P11509); assay: CYP inhibition assay in human liver microsomes (LC-MS/MS cocktail), coumarin to 7-OH-coumarin; format: in vitro ADME
T4 construct: Pooled human liver microsomes were purchased from BD Gentest; tissue BD Gentest; host or cells: pooled human liver microsomes
T4 sequence (P11509 1-494): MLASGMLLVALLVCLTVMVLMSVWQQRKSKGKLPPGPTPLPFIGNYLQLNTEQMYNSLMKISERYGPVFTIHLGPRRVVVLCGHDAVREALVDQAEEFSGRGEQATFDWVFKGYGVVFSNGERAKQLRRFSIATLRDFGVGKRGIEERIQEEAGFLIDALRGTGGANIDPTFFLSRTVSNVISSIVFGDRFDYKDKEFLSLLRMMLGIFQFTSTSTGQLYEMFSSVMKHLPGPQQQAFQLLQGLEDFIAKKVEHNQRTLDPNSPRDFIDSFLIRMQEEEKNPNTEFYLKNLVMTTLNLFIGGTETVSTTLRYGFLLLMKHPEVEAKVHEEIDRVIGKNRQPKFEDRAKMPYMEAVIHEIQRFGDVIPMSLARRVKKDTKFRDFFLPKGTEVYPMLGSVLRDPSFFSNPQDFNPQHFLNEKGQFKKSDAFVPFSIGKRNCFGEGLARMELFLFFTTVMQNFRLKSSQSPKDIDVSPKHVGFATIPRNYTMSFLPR
Description: as §1, §2

- Remaining Activities (% of Control, n = 3) (CYP3A4(T); test substance 0.3 μM): 92.8 ± 0.6 % of Control
- Remaining Activities (% of Control, n = 3) (CYP3A4(T); test substance 1 μM): 92.4 ± 0.9 % of Control
- Remaining Activities (% of Control, n = 3) (CYP3A4(T); test substance 3 μM): 91.1 ± 3.1 % of Control
- Remaining Activities (% of Control, n = 3) (CYP3A4(T); test substance 10 μM): 91.7 ± 4.4 % of Control
- Remaining Activities (% of Control, n = 3) (CYP3A4(T); test substance 30 μM): 91.8 ± 3.0 % of Control
- Remaining Activities (% of Control, n = 3) (CYP3A4(T); test substance 100 μM): 84.8 ± 7.8 % of Control
- Remaining Activities (% of Control, n = 3) (CYP3A4(T); test substance 300 μM): 82.1 ± 3.4 % of Control
- Remaining Activities (% of Control, n = 3) (CYP3A4(T); test substance 1000 μM): 80.0 ± 6.6 % of Control
- Remaining Activities (% of Control, n = 3) (CYP2D6 [3]; test substance 0.3 μM): 107.6 ± 7.4 % of Control
- Remaining Activities (% of Control, n = 3) (CYP2D6 [3]; test substance 1 μM): 104.9 ± 1.0 % of Control
- Remaining Activities (% of Control, n = 3) (CYP2D6 [3]; test substance 3 μM): 106.2 ± 3.7 % of Control
- Remaining Activities (% of Control, n = 3) (CYP2D6 [3]; test substance 10 μM): 101.6 ± 0.5 % of Control
- Remaining Activities (% of Control, n = 3) (CYP2D6 [3]; test substance 30 μM): 100.4 ± 1.4 % of Control
- Remaining Activities (% of Control, n = 3) (CYP2D6 [3]; test substance 100 μM): 102.6 ± 1.7 % of Control
- Remaining Activities (% of Control, n = 3) (CYP2D6 [3]; test substance 300 μM): 100.6 ± 1.3 % of Control
- Remaining Activities (% of Control, n = 3) (CYP2D6 [3]; test substance 1000 μM): 99.5 ± 4.8 % of Control
- Remaining Activities (% of Control, n = 3) (CYP2C19; test substance 0.3 μM): 128.4 ± 27.9 % of Control
- Remaining Activities (% of Control, n = 3) (CYP2C19; test substance 1 μM): 102.5 ± 3.0 % of Control
- Remaining Activities (% of Control, n = 3) (CYP2C19; test substance 3 μM): 102.6 ± 8.8 % of Control
- Remaining Activities (% of Control, n = 3) (CYP2C19; test substance 10 μM): 101.9 ± 4.3 % of Control
- Remaining Activities (% of Control, n = 3) (CYP2C19; test substance 30 μM): 90.5 ± 8.7 % of Control
- Remaining Activities (% of Control, n = 3) (CYP2C19; test substance 100 μM): 100.3 ± 3.7 % of Control
- Remaining Activities (% of Control, n = 3) (CYP2C19; test substance 300 μM): 95.5 ± 5.6 % of Control
- Remaining Activities (% of Control, n = 3) (CYP2C19; test substance 1000 μM): 88.7 ± 7.3 % of Control
- Remaining Activities (% of Control, n = 3) (CYP2A6; test substance 0.3 μM): 107.6 ± 5.2 % of Control
- Remaining Activities (% of Control, n = 3) (CYP2A6; test substance 1 μM): 105.3 ± 0.4 % of Control
- Remaining Activities (% of Control, n = 3) (CYP2A6; test substance 3 μM): 106.2 ± 2.3 % of Control
- Remaining Activities (% of Control, n = 3) (CYP2A6; test substance 10 μM): 101.5 ± 1.4 % of Control
- Remaining Activities (% of Control, n = 3) (CYP2A6; test substance 30 μM): 102.1 ± 2.5 % of Control
- Remaining Activities (% of Control, n = 3) (CYP2A6; test substance 100 μM): 103.4 ± 2.7 % of Control
- Remaining Activities (% of Control, n = 3) (CYP2A6; test substance 300 μM): 97.9 ± 0.4 % of Control
- Remaining Activities (% of Control, n = 3) (CYP2A6; test substance 1000 μM): 94.1 ± 7.3 % of Control
Structure (SMILES): N[C@H]1C(O)O[C@H](CO)[C@@H](O)[C@@H]1O (stereo partly shown) [GCS, glucosamine]
- inhibitory effects on CYP2C9 (CYP2C9): no inhibitory effects
- cases of INR elevation when coumarin anticoagulants were combined with GCS ([1]; EFSA scientific opinion): 40 cases
- INR on co-administration with warfarin ([1]; interaction case, co-administration of CS and GCS with warfarin): elevated INR
- inhibitory effect on CYP2E1 (CYP2E1): no inhibitory effect
- inhibitory effects on CYP2D6 (CYP2D6 [2]): no inhibitory effects
